Assay type in all cases: physicochemical
Data set [1] can be described thus: Kinetic measurements of metal uptake into emulsion (UV-Vis). Conditions: emulsion from example 4. The method, then:
FIG. 15. Time course of metalation of FETRIS nanoemulsion with Fe^3+. Shown is the metalation of emulsion B (70 μM pAn-FDK and 10 μM Fe^3+, 8 mM HCl, pH 2.1). A single exponential fit yields kobs=0.69±0.10 min^−1
Strong absorbance of aromatic diketone and its complexes permits facile kinetic investigation of metalation rates. In atypical measurement, emulsion from example 4 was diluted to 70 uM diketone (excess ligand, modeling radiolabeling conditions) into a solution of chosen pH and treated with 10 uM metal cations of relevance to medical imaging, including Fe^3+ (MRI), Cu^2+ (PET), Ga^3+ (PET, SPECT), Sc^3+ (PET), and In^3+ (SPECT). In all cases, UV-Vis spectral changes indicative of metal uptake into the fluorous phase were detected, proportional in magnitude to the amount of metal. For some metals, kinetic analysis was performed. The reaction time course fit well to a pseudo-first-order process with rate constant kobs (Table 4).

Data set [2] in a line: 19F relaxometry of organic solutions containing paramagnetic dpm complexes. Conditions: 50 mM complexes in 1:1 v/v PhCF3:acetone-d6, 9.4 T. The procedure: FIG. 10. ^19F relaxometry of organic solutions containing paramagnetic complexes. Relaxation rates of the CF3 group were measured in the presence of 50 mM tris-(dipivaloylmethanato) complexes Fe(dpm)3 (left) and Gd(dpm)3 (right) in 1:1 v/v PhCF3:acetone-d6 at 9.4 T in a sealed 5 mm NMR tubes. […] Solid lines are guide for the eye. While monomeric Fe(dpm)3 was highly soluble in PhCF3 alone, polymeric Gd(dpm)3 dissolved only in the presence of Lewis basic solvent acetone-d6. […] The observed ratio between R1(Gd) and R1(Fe) was 1.72-1.77, consistent with the expected 1.8-fold difference due to the S(S+1) term in Eq. S, curtailed by a slight increase in the distance of minimal approach due to the larger size of Gd.
To highlight the critical effect of viscosity on relaxation rates, we measured PRE caused by different metal ions in non-viscous organic solutions containing trifluorotoluene (PhCF3) and iron or gadolinium chelates of dipivaloylmethane, Fe(dpm)3 and Gd(dpm)3. Under these conditions, gadolinium provided higher R1 than iron, as expected from the greater spin of Gd^3+. […] In contrast, the divergent temperature dependence of R1 and R2 in FETRIS nanoemulsion (FIG. 3D) is indicative of slow molecular motion in the fluorous phase.

Data set [3] in a line: Small fluorinated diketones: relaxation enhancement and stability under EDTA competition and cell labeling. The following applies: metalated small fluorinated diketones. The source says:
It may be necessary for sufficient stability to use fluorinated diketones with heavily fluorinated substituents that are well-miscible with other fluorinated agents known in the art to be useful for ^19F MRI.

The nature of data set [4]: 19F relaxometry of PFPE nanoemulsion doped with H-fod and metal chloride. Conditions: 9.4 T. The source says:
FIG. 1. Comparison of iron and gadolinium diketonates (H-fod) as ^19F relaxation agents for PFPE. […] R1 and R2 values are reported for the main PFPE peak at −91.4 ppm.
FIG. 11. ^19F relaxometry of PFPE with metalated small diketones. PFPE nanoemulsion was doped in the fluorous phase with small fluorinated diketones H-fod and H-hfp. […] The left panels display broad ^19F NMR signals of CF2 groups of H-fod and H-hfp observed in the absence of metals indicating poor solubility of the ligands in the fluorous phase. […] The right panel show the time course of metalation of PFPE+H-fod nanoemulsion measured by ^19F relaxometry. R1 and R2 were measured for main PFPE peak at −91 ppm at different time points. The solid lines are guides for the eye. The appearance of orange color of Fe(fod)3 correlated with an increase in relaxation rates. Metalation of PFPE emulsions doped with H-fod with Fe^3+ was several orders of magnitude slower than metalation of emulsions containing pAn-FDK (FIG. 15).
Initially, the results of the PRE modeling [Example 2 and FIG. 9] using small molecules were tested. Fluorinated β-diketone H-fod (FIG. 1) was chosen as starting point. […] Addition of 0.7 mM FeCl3 led to the slow formation of orange-colored Fe(fod)3 and a commensurate increase in R1 from 2.3 to 27.0 s^−1 and in R2 from 4.0 to 85.6 s^−1 (at 9.4 T) of the major PFPE resonance (−91.4 ppm) by 24 hours (FIG. 11). With GdCl3, lower R1 (12.8 s^−1) and higher R2 (285 s^−1) values were obtained.

[5] abbreviates: final [M^3+] 10 uM, [ligand] 70 uM, pH 2.1 (8 mM HCl).

`[Cl-].[Cl-].[Cl-].[In+3]` [InCl3]: the kobs in data set [1] (final [M^3+] 2 uM, [ligand] 14 uM, pH ~5 (unbuffered H2O)) was more than 10 min⁻¹; in data set [1] (final [M^3+] 10 uM, [ligand] 70 uM, pH 7.4 HEPES), 0.0322 min⁻¹.
For the molecule `CC(C)(C)C(=O)C=C(O)C(C)(C)C.CC(C)(C)C(=O)C=C(O)C(C)(C)C.CC(C)(C)C(=O)C=C(O)C(C)(C)C.[Gd]` [Gd(dpm)3], the “ratio between R1(Gd) and R1(Fe)” value in data set [2] was 1.72-1.77.
`[Cl][Ga]([Cl])[Cl]` [GaCl3] gave a kobs in data set [1] (setting [5]) of 0.043 min⁻¹.
Regarding `[Cl][Fe]([Cl])[Cl]` [FeCl3], the kobs in data set [1] (final [M^3+] 5 uM, [ligand] 70 uM, pH 2.1 (8 mM HCl)) was 0.79 min⁻¹; in data set [1] (setting [5]), 0.70 min⁻¹.
For the molecule `O=C(/C=C(\O)c1ccccc1)C(F)F` [H-bda], in data set [3], the enhancing relaxation entry is “highly effective”; the “stability under the conditions of EDTA competition and cell labeling” value (“stability under the conditions” below) is recorded as “not stable enough”.
On to `CC(C)(C)/C(O)=C/C(=O)C(F)(F)C(F)(F)C(F)(F)F` [H-fod], for which, in data set [3], the enhancing relaxation entry is reported as “highly effective”; the “stability under the conditions” value was “not stable enough”. In addition, the “R1 of major PFPE resonance (−91.4 ppm)” value in data set [4] (PFPE nanoemulsion + 2.8 mM H-fod + 0.7 mM FeCl3, by 24 hours) was determined as 27.0 s⁻¹. Further, the “R1 of major PFPE resonance” value in data set [4] (PFPE nanoemulsion + 2.8 mM H-fod with GdCl3) was found to be 12.8 s⁻¹. For the same molecule, in data set [4] (PFPE nanoemulsion + 2.8 mM H-fod, before metal addition), the “R1 of major PFPE resonance (−91.4 ppm)” value came out at 2.3 s⁻¹.
For the molecule `O=C(CC(=O)C(F)(F)F)c1cccs1` [H-tta], in data set [3], the enhancing relaxation entry is “highly effective”; the “stability under the conditions” value is given as “not stable enough”.
The corresponding values for `C/C(O)=C/C(=O)C(F)(F)C(F)(F)C(F)(F)F` [H-hhd] are “highly effective” and “not stable enough”.
The corresponding values for `O=C(CC(=O)C(F)(F)F)c1ccccc1` [H-bta] are “highly effective” and “not stable enough”.
The corresponding values for `C/C(O)=C/C(=O)C(F)(F)C(F)(F)C(F)(F)C(F)(F)C(F)(F)C(F)(F)F` [H-tdd] are “highly effective” and “not stable enough”.

The values above are taken from patent US11406721B2, “Compositions and methods for imaging cell populations” (The Regents of the University of California, priority 2016, dated 2022).
